# From patent US10633379B2, “Bromodomain inhibitors” (AbbVie Inc., priority 2016, dated 2020)
# What was measured:
# BRD4 (BDI_K57-E168) = BRD4 (BDI_K57-E168) (Homo sapiens (Human), UniProt O60885); experiment: TR-FRET bromodomain binding assay, BRD4 BDI; settings: mean Ki, calculated from IC50, probe Kd and probe concentration
# Outline: (§1)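 Probe displacement measured by TR-FRET after 1 h at room temperature, in 20 mM sodium phosphate pH 6.0 and 2% DMSO. BDI used 12 nM protein with 100 nM probe, BDII 4 nM with 30 nM probe, each with 1 nM europium antibody. Ki derived from fitted IC50, probe Kd and probe level.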
# BRD4 (BDII_E352-M457) = BRD4 (BDII_E352-M457) (Homo sapiens (Human), UniProt O60885); experiment: TR-FRET bromodomain binding assay, BRD4 BDII; settings: mean Ki, calculated from IC50, probe Kd and probe concentration
# Outline: as §1
Structure (SMILES),Ki (BRD4 (BDI_K57-E168)),Ki (BRD4 (BDII_E352-M457))
"CCNC(=O)c1cc2c(-c3nc(C(C)(C)O)ccc3Oc3c(C)cccc3C)cn(C)c(=O)c2[nH]1 [Example 77, 4-[3-(2,6-dimethylphenoxy)-6-(2-hydroxypropan-2-yl)pyridin-2-yl]-N-ethyl-6-methyl-7-oxo-6,7-dihydro-1H-pyrrolo[2,3-c]pyridine-2-carboxamide]",606 nM,2.2 nM
"CCNC(=O)c1cc2c(-c3cc(C(C)(O)CF)cnc3Oc3c(C)cc(F)cc3C)cn(C)c(=O)c2[nH]1 (stereo not drawn) [Example 78, N-ethyl-4-[2-(4-fluoro-2,6-dimethylphenoxy)-5-(1-fluoro-2-hydroxypropan-2-yl)pyridin-3-yl]-6-methyl-7-oxo-6,7-dihydro-1H-pyrrolo[2,3-c]pyridine-2-carboxamide]",253 nM,2.2 nM
"CCNC(=O)c1cc2c(-c3cc(C(C)(O)C(F)(F)F)cnc3Oc3c(C)cc(F)cc3C)cn(C)c(=O)c2[nH]1 (stereo not drawn) [Example 79, N-ethyl-4-[2-(4-fluoro-2,6-dimethylphenoxy)-5-(1,1,1-trifluoro-2-hydroxypropan-2-yl)pyridin-3-yl]-6-methyl-7-oxo-6,7-dihydro-1H-pyrrolo[2,3-c]pyridine-2-carboxamide]",225 nM,2.5 nM
"CCNC(=O)c1cc2c(-c3cc(C(O)(C(F)(F)F)C(F)(F)F)cnc3Oc3c(C)cc(F)cc3C)cn(C)c(=O)c2[nH]1 [Example 80, N-ethyl-4-[2-(4-fluoro-2,6-dimethylphenoxy)-5-(1,1,1,3,3,3-hexafluoro-2-hydroxypropan-2-yl)pyridin-3-yl]-6-methyl-7-oxo-6,7-dihydro-1H-pyrrolo[2,3-c]pyridine-2-carboxamide]",486 nM,5.2 nM
"CCNC(=O)c1cc2c(-c3cc(C(C)(C)O)ccc3Oc3c(C)cccc3F)cn(C)c(=O)c2[nH]1 [Example 81, N-ethyl-4-[2-(2-fluoro-6-methylphenoxy)-5-(2-hydroxypropan-2-yl)phenyl]-6-methyl-7-oxo-6,7-dihydro-1H-pyrrolo[2,3-c]pyridine-2-carboxamide]",43 nM,1.1 nM
"CCNC(=O)c1cc2c(-c3cc(C(C)(O)CF)ccc3Oc3c(C)cc(F)cc3C)cn(C)c(=O)c2[nH]1 (stereo not drawn) [Example 83, N-ethyl-4-[2-(4-fluoro-2,6-dimethylphenoxy)-5-(1-fluoro-2-hydroxypropan-2-yl)phenyl]-6-methyl-7-oxo-6,7-dihydro-1H-pyrrolo[2,3-c]pyridine-2-carboxamide]",350 nM,1.1 nM
"CCNC(=O)c1cc2c(-c3cc(C(C)(C)O)ccc3Oc3c(C)cc(Cl)cc3C)cn(C)c(=O)c2[nH]1 [Example 84, 4-[2-(4-chloro-2,6-dimethylphenoxy)-5-(2-hydroxypropan-2-yl)phenyl]-N-ethyl-6-methyl-7-oxo-6,7-dihydro-1H-pyrrolo[2,3-c]pyridine-2-carboxamide]",610 nM,1.9 nM
"CCNC(=O)c1cc2c(-c3cc(C(C)(C)O)ccc3Oc3c(C)cc(S(C)(=O)=O)cc3C)cn(C)c(=O)c2[nH]1 [Example 85, N-ethyl-4-{5-(2-hydroxypropan-2-yl)-2-[4-(methanesulfonyl)-2,6-dimethylphenoxy]phenyl}-6-methyl-7-oxo-6,7-dihydro-1H-pyrrolo[2,3-c]pyridine-2-carboxamide]",433 nM,1.8 nM
"CCNC(=O)c1cc2c(-c3cc(C(C)(O)C(F)(F)F)ccc3Oc3c(C)cc(F)cc3C)cn(C)c(=O)c2[nH]1 (stereo not drawn) [Example 86, N-ethyl-4-[2-(4-fluoro-2,6-dimethylphenoxy)-5-(1,1,1-trifluoro-2-hydroxypropan-2-yl)phenyl]-6-methyl-7-oxo-6,7-dihydro-1H-pyrrolo[2,3-c]pyridine-2-carboxamide]",416 nM,1.4 nM
"Cc1cc(F)cc(C)c1Oc1ccc(C(C)(O)CF)cc1-c1cn(C)c(=O)c2[nH]c(C(=O)NC(C)(C)C)cc12 (stereo not drawn) [Example 87, N-tert-butyl-4-[2-(4-fluoro-2,6-dimethylphenoxy)-5-(1-fluoro-2-hydroxypropan-2-yl)phenyl]-6-methyl-7-oxo-6,7-dihydro-1H-pyrrolo[2,3-c]pyridine-2-carboxamide]",501 nM,2.8 nM
"CCNC(=O)c1cc2c(-c3cc(C(C)(O)CF)ccc3Oc3c(C)cc(Cl)cc3C)cn(C)c(=O)c2[nH]1 (stereo not drawn) [Example 88, 4-[2-(4-chloro-2,6-dimethylphenoxy)-5-(1-fluoro-2-hydroxypropan-2-yl)phenyl]-N-ethyl-6-methyl-7-oxo-6,7-dihydro-1H-pyrrolo[2,3-c]pyridine-2-carboxamide]",389 nM,1.1 nM
"CCNC(=O)c1cc2c(-c3cc(C(C)(C)O)cnc3-c3ccc(F)cc3F)cn(C)c(=O)c2[nH]1 [Example 89, 4-[2-(2,4-difluorophenyl)-5-(2-hydroxypropan-2-yl)pyridin-3-yl]-N-ethyl-6-methyl-7-oxo-6,7-dihydro-1H-pyrrolo[2,3-c]pyridine-2-carboxamide]",281 nM,1.7 nM
"Cc1cc(S(C)(=O)=O)cc(C)c1Oc1ccc(C(C)(C)O)cc1-c1cn(C)c(=O)c2[nH]c(C(=O)NC(C)(C)C)cc12 [Example 90, N-tert-butyl-4-{5-(2-hydroxypropan-2-yl)-2-[4-(methanesulfonyl)-2,6-dimethylphenoxy]phenyl}-6-methyl-7-oxo-6,7-dihydro-1H-pyrrolo[2,3-c]pyridine-2-carboxamide]",158 nM,2 nM

# Other lines, results leading:
Ki (BRD4 (BDI_K57-E168)),Ki (BRD4 (BDII_E352-M457)),Structure (SMILES)
271 nM,1.6 nM,"CCNC(=O)c1cc2c(-c3cc(C(C)(C)O)cnc3Oc3c(C)ccc(F)c3C)cn(C)c(=O)c2[nH]1 [Example 91, N-ethyl-4-[2-(3-fluoro-2,6-dimethylphenoxy)-5-(2-hydroxypropan-2-yl)pyridin-3-yl]-6-methyl-7-oxo-6,7-dihydro-1H-pyrrolo[2,3-c]pyridine-2-carboxamide]"
410 nM,12.1 nM,"Cc1cc(S(C)(=O)=O)cc(C)c1Oc1ncc(C(C)(C)O)cc1-c1cn(C)c(=O)c2[nH]c(C(=O)NC(C)(C)C)cc12 [Example 92, N-tert-butyl-4-{5-(2-hydroxypropan-2-yl)-2-[4-(methanesulfonyl)-2,6-dimethylphenoxy]pyridin-3-yl}-6-methyl-7-oxo-6,7-dihydro-1H-pyrrolo[2,3-c]pyridine-2-carboxamide]"
502 nM,10.9 nM,"CCNC(=O)c1cc2c(-c3cc(C(C)(C)O)cnc3Oc3c(C)cc(S(C)(=O)=O)cc3C)cn(C)c(=O)c2[nH]1 [Example 93, N-ethyl-4-{5-(2-hydroxypropan-2-yl)-2-[4-(methanesulfonyl)-2,6-dimethylphenoxy]pyridin-3-yl}-6-methyl-7-oxo-6,7-dihydro-1H-pyrrolo[2,3-c]pyridine-2-carboxamide]"
236 nM,3.7 nM,"CCNC(=O)c1cc2c(-c3cc(C(C)(C)O)cnc3Oc3c(C)cc(Cl)cc3C)cn(C)c(=O)c2[nH]1 [Example 94, 4-[2-(4-chloro-2,6-dimethylphenoxy)-5-(2-hydroxypropan-2-yl)pyridin-3-yl]-N-ethyl-6-methyl-7-oxo-6,7-dihydro-1H-pyrrolo[2,3-c]pyridine-2-carboxamide]"
333 nM,4.8 nM,"Cc1cc(Cl)cc(C)c1Oc1ncc(C(C)(C)O)cc1-c1cn(C)c(=O)c2[nH]c(C(=O)NC(C)(C)C)cc12 [Example 95, N-tert-butyl-4-[2-(4-chloro-2,6-dimethylphenoxy)-5-(2-hydroxypropan-2-yl)pyridin-3-yl]-6-methyl-7-oxo-6,7-dihydro-1H-pyrrolo[2,3-c]pyridine-2-carboxamide]"
801 nM,9.1 nM,"CCNC(=O)c1cc2c(-c3nc(C(C)(C)O)ccc3Oc3c(C)cc(F)cc3C)cn(C)c(=O)c2[nH]1 [Example 96, N-ethyl-4-[3-(4-fluoro-2,6-dimethylphenoxy)-6-(2-hydroxypropan-2-yl)pyridin-2-yl]-6-methyl-7-oxo-6,7-dihydro-1H-pyrrolo[2,3-c]pyridine-2-carboxamide]"
657 nM,24.7 nM,"Cc1cc(F)cc(C)c1Oc1ccc(C(C)(C)O)nc1-c1cn(C)c(=O)c2[nH]c(C(=O)NC(C)(C)C)cc12 [Example 97, N-tert-butyl-4-[3-(4-fluoro-2,6-dimethylphenoxy)-6-(2-hydroxypropan-2-yl)pyridin-2-yl]-6-methyl-7-oxo-6,7-dihydro-1H-pyrrolo[2,3-c]pyridine-2-carboxamide]"
682 nM,9.6 nM,"CCNC(=O)c1cc2c(-c3cc(C(C)(C)O)ccc3Oc3c(C)cc(F)cc3C(F)F)cn(C)c(=O)c2[nH]1 [Example 98, 4-{2-[2-(difluoromethyl)-4-fluoro-6-methylphenoxy]-5-(2-hydroxypropan-2-yl)phenyl}-N-ethyl-6-methyl-7-oxo-6,7-dihydro-1H-pyrrolo[2,3-c]pyridine-2-carboxamide]"
431 nM,1.8 nM,"CCNC(=O)c1cc2c(-c3cc(C(C)(C)O)ccc3Oc3c(C)ccc(Cl)c3C)cn(C)c(=O)c2[nH]1 [Example 99, 4-[2-(3-chloro-2,6-dimethylphenoxy)-5-(2-hydroxypropan-2-yl)phenyl]-N-ethyl-6-methyl-7-oxo-6,7-dihydro-1H-pyrrolo[2,3-c]pyridine-2-carboxamide]"
115 nM,5.6 nM,"Cn1cc(-c2cc(C(C)(C)O)cnc2Oc2c(Cl)cc(F)cc2Cl)c2cc(C(=O)NC(C)(C)C)[nH]c2c1=O [Example 100, N-tert-butyl-4-[2-(2,6-dichloro-4-fluorophenoxy)-5-(2-hydroxypropan-2-yl)pyridin-3-yl]-6-methyl-7-oxo-6,7-dihydro-1H-pyrrolo[2,3-c]pyridine-2-carboxamide]"
110 nM,2.5 nM,"CCNC(=O)c1cc2c(-c3cc(C(C)(C)O)cnc3Oc3c(Cl)cc(F)cc3Cl)cn(C)c(=O)c2[nH]1 [Example 101, 4-[2-(2,6-dichloro-4-fluorophenoxy)-5-(2-hydroxypropan-2-yl)pyridin-3-yl]-N-ethyl-6-methyl-7-oxo-6,7-dihydro-1H-pyrrolo[2,3-c]pyridine-2-carboxamide]"
